Data as given in EPA's ToxRefDB 2.

Legend:
rat [1] = conditions: Subchronic oral toxicity in rodents, sprague dawley, Gavage/Intubation, dose end: 90 day, group: systemic
rabbit = conditions: Sub-acute dermal toxicity, new zealand white, Topical, dose end: 3 week, group: systemic, systemic / pathology gross / lymph node / enlarged + systemic / pathology gross / skin / lesion(s) (nos) + systemic / pathology microscopic…
rat [2] = conditions: Subchronic oral toxicity in rodents, fischer, Gavage/Intubation, dose end: 13 week, group: systemic
mouse = conditions: Subchronic oral toxicity in rodents, b6c3f1, Gavage/Intubation, dose end: 13 week, group: systemic
[3] = systemic / clinical chemistry / [other] / [other] + systemic / clinical chemistry / chloride / chloride + systemic / clinical chemistry / …
[4] = systemic / pathology gross / thymus / discolored
[5] = systemic / hematology / anemia / anemia - macrocytic + systemic / hematology / erythrocyte (rbc) count differential / erythrocyte (rbc) + …
[6] = systemic / hematology / methemoglobin / methemoglobin
[7] = systemic / hematology / anemia / anemia - normocytic + systemic / hematology / erythrocyte (rbc) count differential / erythrocyte (rbc) + …

SMILES	LOAEL (rat [1]; [3])	NOAEL (rat [1]; [3])	LEL (rat [1]; [4])	NEL (rat [1]; [4])	LEL (rabbit)	LOAEL (rabbit)	NEL (rabbit)	NOAEL (rabbit)	LOAEL (rat [2]; [5])	NOAEL (rat [2]; [5])	LEL (rat [2]; [6])	NEL (rat [2]; [6])	LOAEL (mouse; [7])	NOAEL (mouse; [7])	LEL (mouse; [6])	NEL (mouse; [6])
Cc1ccc(O)c(C)c1 [2,4-Dimethylphenol]	> 540 mg/kg/day	≥ 540 mg/kg/day	60 mg/kg/day	< 60 mg/kg/day	1200 mg/kg/day	> 2400 mg/kg/day	< 1200 mg/kg/day	≥ 2400 mg/kg/day								
Nc1ccccc1Cl [2-Chloroaniline]									80 mg/kg/day	40 mg/kg/day	10 mg/kg/day	< 10 mg/kg/day	80 mg/kg/day	40 mg/kg/day	10 mg/kg/day	< 10 mg/kg/day
